{
  "source": "patent US11622967B2",
  "about": "(SUVEN LIFE SCIENCES LIMITED, priority 2018, dated 2023)",
  "key": {"male C57BL/6J mice": {"tested_on": "male C57BL/6J mice", "assay": "Sleep and wake profile by telemetric EEG in male C57BL/6J mice", "assay_type": "in vivo, mouse", "conditions": "10 and 30 mg/kg, p.o., first 4 hours post dosing (FIG. 3)", "text": "Mice were anesthetized with isoflurane (Baxter India Private Limited; 4% in oxygen for induction; 2% for maintenance) and were fixed into the stereotaxic frame (Stoelting, Ill., USA) to perform surgery. An incision was made to reveal bregma from which coordinates were taken. Telemetric transmitter (Model F20-EET; DSI, St. Paul, Minn., USA) was implanted into intraperitoneal cavity of the […] and leads were tunneled subcutaneously to head. One pair of flexible spring electrodes were implanted epidurally into the frontal cortex region at coordinates of AP+1.0 mm, ML±2.0 mm (Franklin and Paxinos, 20074) for recording of EEG and electrodes were fixed to the skull with dental acrylic cement (DENTALON® plus). The second set of lead wires was implanted into the neck nuchal muscle to record EMG. Incision was closed using non absorbable sutures. After a surgical recovery of minimum 2 weeks, animals were acclimatized to the handling procedures and were given a mock dosing for 3 days before the first experimental day.\nOn the day of study, transmitter was switched on using magnet and animals were transferred on to the receiver along with the home cage. Recording was started 3 h after the lights-on using Ponemah (Version 5.2) software. […] Recording was continued for 6 h post treatment. […]\n(§1) Statistical analysis: EEG data was scored with automated standard sleep scoring protocols using Neuroscore. […]"}, "male Wistar rats": {"tested_on": "male Wistar rats", "assay": "Sleep and wake profile by telemetric EEG in male Wistar rats", "assay_type": "in vivo, rat", "conditions": "10 and 30 mg/kg, p.o., first 4 hours post dosing (FIG. 2)", "text": "(§2) Rats were anesthetized with isoflurane (Baxter India Private Limited; 4% in oxygen for induction; 2% for maintenance) and were fixed into the stereotaxic frame (Stoelting, Ill., USA) to perform surgery. An incision was made to reveal bregma from which coordinates were taken. Telemetric transmitter (Model F40-EET; DSI, St. Paul, Minn., USA) was implanted into intraperitoneal cavity of the rat and leads were tunneled subcutaneously to head. One pair of electrodes were implanted epidurally into the frontal cortex region using stainless steel screws (CMA Microdialysis, Stockholm, Sweden) at coordinates of AP+2.0 mm, ML±2.2 mm (Paxinos and Watson, 2004) for recording of EEG and electrodes were fixed to the skull with dental acrylic cement (DENTALON® plus). The second set of lead wires was implanted into the neck nuchal muscle to record electromyogram (EMG). Incision was closed using non absorbable sutures. After a surgical recovery of minimum 2 weeks, animals were acclimatized to the handling procedures and were given a mock dosing for 3 days before the first experimental day.\nOn the day of study, transmitter was switched on using magnet and animals were transferred on to the receiver along with the home cage. […]\nas §1"}, "[1]": {"tested_on": "cortical levels of dopamine and norepinephrine", "assay": "Dopamine and norepinephrine modulation in prefrontal cortex, microdialysis", "assay_type": "in vivo, rat", "conditions": "male Wistar rats, 3-30 mg/kg, p.o. (FIG. 7)", "text": "(§3) Male Wistar rats (240-300 g body weight) were stereotaxically implanted with a microdialysis guide cannula in prefrontal cortex (PFC; AP: +3.2 mm, ML: −0.5 mm, DV: −1.0 mm) under isoflurane anesthesia. Co-ordinates were taken according to atlas for the rat brain (Paxinos and Watson 2004) with reference points taken from bregma and vertical from the skull. The rats were allowed to recover individually for four days in a round bottom Plexiglas bowl with free access to feed and water.\n(§4) After surgical recovery of 4 days, male Wistar rats were connected to dual quartz lined two-channel liquid swivel (Instech, UK) on a counter balance lever arm, which allowed unrestricted movements of the animal. […]\nQuantitation of dopamine and norepinephrine: Monoamines in dialysate were derivatized with dansyl chloride and quantified using LC-MS/MS based method in calibration ranges of 0.07-15 nmol/L for all […] analytes.\n(§5) Statistical analysis: All microdialysis data for dopamine and norepinephrine were plotted as percent change from mean dialysate basal concentrations with 100% defined as the average of four pre-dose values. […] Area under the curve (AUC) values for percent change in neurotransmitter levels were calculated and the statistical significance between the mean AUC value were compared against vehicle treatment using one-way ANOVA followed by Dunnett's test. […]"}, "[2]": {"target": "histamine-3 receptor (in-vivo) (Rattus norvegicus (Rat), UniProt Q9QYN8)", "sequence (Q9QYN8 whole entry)": "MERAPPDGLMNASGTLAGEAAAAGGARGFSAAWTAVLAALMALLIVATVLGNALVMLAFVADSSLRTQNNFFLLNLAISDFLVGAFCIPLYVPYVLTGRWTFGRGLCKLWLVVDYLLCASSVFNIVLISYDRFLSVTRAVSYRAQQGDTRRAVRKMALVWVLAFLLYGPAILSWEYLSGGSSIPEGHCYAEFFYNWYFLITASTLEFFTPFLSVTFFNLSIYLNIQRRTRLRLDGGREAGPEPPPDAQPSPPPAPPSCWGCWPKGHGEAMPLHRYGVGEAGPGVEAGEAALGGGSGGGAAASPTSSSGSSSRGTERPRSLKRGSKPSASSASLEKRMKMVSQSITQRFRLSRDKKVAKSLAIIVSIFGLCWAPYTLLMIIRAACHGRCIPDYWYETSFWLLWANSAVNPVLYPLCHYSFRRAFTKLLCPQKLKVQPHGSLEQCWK", "assay": "(R)-α-methylhistamine induced dipsogenia assay", "conditions": "rats, oral, RAMH 2.5 mg/kg s.c.", "method": "The experiment consisted of 3 days. The animals were individually housed in their home cages. 24 h water consumption was recorded for 2 days. Rats were randomized according to average of 2 days water consumption. […] Statistical analysis: Data was compared and assessed by one-way ANOVA followed by Dunnett's post hoc test by using graph pad prism software package."}, "[3]": {"tested_on": "orexin-B-saporin lesioned male Wistar rats", "assay": "Sleep and wake profile by telemetric EEG in orexin-B-saporin lesioned rats (narcolepsy model)", "assay_type": "in vivo, rat", "method": "Rats were anesthetized with 4% isoflurane (Baxter India Private Limited) and maintained on 2% isoflurane for entire duration of surgery. Under isoflurane anesthesia, rats were placed into a stereotaxic instrument and received bilateral microinjections of 0.5 μL containing 490 ng of orexin-B-saporin conjugate (Advanced Targeting System, San Diego, Calif., USA) or saline solution in the lateral hypothalamus (coordinates: AP: −3.5 mm; ML: ±1.5 mm; DV: −8.7 mm).^3 Microinjections were performed using a glass micropipette (20 μm at the tip). Analgesic and antibiotic treatment were administered at the end of this procedure.\nas §2, with “After injection of” for “Rats were anesthetized with isoflurane (Baxter India Private Limited; 4% in oxygen for induction; 2% for maintenance) and were fixed into”, “orexin-B-Saporin, telemetric” for “stereotaxic frame (Stoelting, Ill., USA) to perform surgery. An incision was made to reveal bregma from which coordinates were taken. Telemetric”, “2004)^3” for “2004)”, “EMG.” for “electromyogram (EMG).”, “about 3” for “minimum 2”\nOn the day of study, transmitter was switched on using magnet and animals were transferred on to the receiver along with the home cage. Recording was started 1 h before lights-off using Ponemah (Version 5.2) software. […] Recording was continued for 8 h post treatment. EEG and EMG were collected as primary signals and sampled at 500 Hz. Whereas, temperature and activity were sampled at 250 Hz. The data was stored for off-line analysis using NeuroScore software (Version 3.0).\nStatistical analysis: EEG data was scored with automated standard sleep scoring protocols using Neuroscore. Rodent EEG and EMG data was manually classified into one of three sleep/wake states: awake, REM (Rapid eye movement/Paradoxical sleep), or NREM (Non-rapid eye movement/slow wave sleep) according to visual analysis of EEG frequency and amplitude characteristics and EMG activity using 10 s epochs. Waking activity was defined as relatively low-amplitude EEG activity with low power in the low-frequency bands, accompanied by moderate to high level EMG activity. NREM was defined as generally high-amplitude EEG activity with greater power in the low-frequency bands from 0.5-4 Hz, accompanied by minimal EMG activity. REM sleep was characterized by moderate and constant amplitude EEG activity focused in the θ (6-9 Hz) range with no (or only sporadic) EMG activity. […]"}, "[4]": {"tested_on": "cortical histamine levels", "assay": "Histamine modulation in prefrontal cortex, microdialysis", "assay_type": "in vivo, rat", "text": "as §3, §4\nQuantitation of histamine: Histamine concentrations in dialysates were quantified using post-column derivatization with o-phthalaldehyde employing HPLC coupled to fluorescence detector and analysis was carried out in the calibration range of 33-640 fmol/20 μL\nas §5, with “histamine was” for “dopamine and norepinephrine were”, “five” for “four”, “histamine” for “neurotransmitter”"}},
  "note": "Counter-ions that a name gives are not always drawn.",
  "data": [
    {"compound": "O=C(CN1CCOCC1)Nc1ccc(OC2CCN(C3CCC3)CC2)cc1", "note": "[SUVN-G3031, N-[4-(1-Cyclobutylpiperidin-4-yloxy)phenyl]-2-(morpholin-4-yl)acetamidedihydrochloride]", "values": [
      {"measurement": "time spent in wake period compared to vehicle", "setting": "male C57BL/6J mice", "value": "significant increase"},
      {"measurement": "time spent in wake period compared to vehicle", "setting": "male Wistar rats", "value": "significantly increased"},
      {"measurement": "cortical levels of dopamine", "setting": "[1]", "value": "significant increase"},
      {"measurement": "cortical levels of norepinephrine", "setting": "[1]", "value": "significant increase"},
      {"measurement": "effect on (R)-α-methylhistamine induced dipsogenia (water consumption)", "setting": "[2]; at 60 min (FIG. 1a)", "value": "blocked"},
      {"measurement": "effect on (R)-α-methylhistamine induced dipsogenia (water consumption)", "setting": "[2]; at 120 min (FIG. 1b)", "value": "blocked"},
      {"measurement": "cataplectic (direct transition of wake to REM) episodes", "setting": "[3]; orexin-B-saporin lesioned rats (FIG. 5)", "value": "decreased"},
      {"measurement": "wake period compared to vehicle", "setting": "[3]; orexin-B-saporin lesioned rats, first 4 hours post dosing (FIG. 4a)", "value": "significant increase"},
      {"measurement": "REM sleep", "setting": "[3]; orexin-B-saporin lesioned rats, first 4 hours post dosing (FIG. 4b)", "value": "significant decrease"},
      {"measurement": "NREM sleep", "setting": "[3]; orexin-B-saporin lesioned rats, first 4 hours post dosing (FIG. 4c)", "value": "no effect"},
      {"measurement": "mean AUC of percent change in histamine levels compared to vehicle", "setting": "[4]; male Wistar rats, 0.3, 1 and 10 mg/kg, p.o. (FIG. 6)", "value": "statistically significant"},
      {"measurement": "cortical histamine levels", "setting": "[4]; male Wistar rats, 0.3-10 mg/kg, p.o.", "value": "significant increase"}
    ]}
  ]
}
